Data taken from patent US20240246942A1, “KINASE INHIBITORS FOR THE TREATMENT OF NEURODEGENERATIVE DISEASES” (priority 2020, published 2024).

Columns and labels:
JNK2 = JNK2 (Homo sapiens, UniProt P45984); test: JNK2 homogeneous time-resolved fluorescence enzyme inhibition assay; type: biochemical; conditions: for R: ratio of IC50 values of JNK2 over JNK3: isoform selectivity against JNK2; for IC50: mean of ≥2 experiments, read-out: Biochemical inhibition IC50 JNK2
Protocol: (§1) A 10-point titration of all compounds was carried out in 3-fold dilutions from 10 μM to 0.5 nM.

JNK1 = JNK1 (Homo sapiens, UniProt P45983); test: JNK1 homogeneous time-resolved fluorescence enzyme inhibition assay; type: biochemical; conditions: for R: ratio of IC50 values of JNK1 over JNK3: isoform selectivity against JNK1; for IC50: mean of ≥2 experiments, read-out: Biochemical inhibition IC50 JNK1
Protocol: as §1

CYP1A2 = biological target: T1, CYP1A2 (Homo sapiens, UniProt P05177); test: P450 cocktail inhibition assay, CYP1A2; type: in vitro ADME; conditions: at 10 μM
T1 sequence (P05177 1-516): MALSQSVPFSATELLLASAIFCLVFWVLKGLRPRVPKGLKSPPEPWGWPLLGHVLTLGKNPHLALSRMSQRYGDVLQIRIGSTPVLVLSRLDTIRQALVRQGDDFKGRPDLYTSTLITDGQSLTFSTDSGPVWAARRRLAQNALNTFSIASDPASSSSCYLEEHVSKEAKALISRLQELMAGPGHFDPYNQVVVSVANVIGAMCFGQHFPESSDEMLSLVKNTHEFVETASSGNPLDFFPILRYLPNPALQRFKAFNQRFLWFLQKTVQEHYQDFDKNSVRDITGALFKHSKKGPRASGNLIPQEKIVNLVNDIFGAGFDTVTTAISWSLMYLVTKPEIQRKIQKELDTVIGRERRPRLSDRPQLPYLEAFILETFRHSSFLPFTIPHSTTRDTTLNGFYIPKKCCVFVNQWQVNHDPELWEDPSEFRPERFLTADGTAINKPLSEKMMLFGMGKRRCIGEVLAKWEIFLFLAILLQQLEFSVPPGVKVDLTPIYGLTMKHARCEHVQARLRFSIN
Protocol: (§2) P450s inhibition for four major isoforms are evaluated using a cocktail inhibition assay where the metabolism of specific marker substrate (CYP1A2 phenaceten […] to acetaminophen); CYP2C9, tolbutamide hydroxylation to hydrocytolbutamide; CYP2D6, bufuralol hydroxylation to […]; and CYP3A4, midazolam hydroxylation to 1′-Hydroxymidazolam) in the presence or absence of 10 TM probe compound is evaluated. The concentration of each marker substrate is approximately its Km. […] Specific inhibitors for each isoform are included in each run to validate the system.

SHSY5Y cells = test: MTT cytotoxicity assay; type: cell-based; design: dose or concentration left out as unconfirmed; conditions: 48 hrs, average of ≥2 experiments;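 further: compounds tested at 10 µM final concentration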
Protocol: A day before the assay, cells were plated at 50,000/well in 96 well plates in the culture medium. […] After the incubation, cells were subjected to MTT assay using Vybrant MTT Cell Proliferation kit as directed by the vendor (Life Technologies).

[1] = Microsomal stability, mouse; type: in vitro ADME; conditions: mouse microsomes
CYP3A4 = CYP3A4 (Homo sapiens, UniProt P08684); test: P450 cocktail inhibition assay, CYP3A4; type: in vitro ADME; conditions: at 10 μM
Protocol: as §2

[2] = Microsomal stability, human; type: in vitro ADME; conditions: human microsomes
p38α = p38α (Homo sapiens, UniProt Q16539); test: p38 enzyme inhibition assay; conditions: mean of ≥2 experiments; read-out: Biochemical inhibition IC50 p38α
CYP2C9 = CYP2C9 (Homo sapiens, UniProt P11712); test: P450 cocktail inhibition assay, CYP2C9; type: in vitro ADME; conditions: at 10 μM
Protocol: as §2

CYP2D6 = CYP2D6 (Homo sapiens, UniProt P10635); test: P450 cocktail inhibition assay, CYP2D6; type: in vitro ADME; conditions: at 10 μM
Protocol: as §2

JNK3α1 = JNK3α1 (Homo sapiens, UniProt P53779); type: biochemical; conditions: for IC50: mean of ≥2 experiments, read-out: Biochemical inhibition IC50 JNK3
Protocol: as §1

[3] = system: JNK3-dependent phosphorylation of APP at T668; test: JNK3 inhibition assay in rat primary neuron cultures (Western blot, anisomycin activated); type: cell-based; conditions: even at a concentration as low as 10 nM; FIGS. 5A-5C
Protocol: Both hippocampal and cortical neurons were isolated from E18 rat embryos and cultured in NbActive 1 medium that contains B27 (Brainbits, LLC) plus penicillin/streptomycin (Life Technologies). At the 7th day in culture, cells were treated with different concentrations of inhibitors diluted in DMSO and 80 ng/ml Anisomycin for 30 min to activate the endogenous JNK3. At the end of incubation time, whole cell lysates were prepared in RIPA buffer containing 50 mM Tris (pH 8.0), 150 mM NaCl, 2 mM EDTA, 1% NP-40, 0.5% deoxycholate supplemented with 10 mM Na pyrophosphate, 1 mM sodium orthovanadate, 25 mM NaF, 10 μg/ml leupeptin, 10 μg/ml aprotinin, 1 mM β-glycerophosphate, and 2 mM PMSF. The lysates were subjected to Western blotting to detect whether inhibitors block JNK3-dependent phosphorylation of APP at T668 and c-jun at S73. Phospho-APP^T668, phosphor-c-jun^S73, APP, and c-jun antibodies were from Cell Signaling Technology.

Chain of JNK2 (P45984 whole entry, canonical isoform): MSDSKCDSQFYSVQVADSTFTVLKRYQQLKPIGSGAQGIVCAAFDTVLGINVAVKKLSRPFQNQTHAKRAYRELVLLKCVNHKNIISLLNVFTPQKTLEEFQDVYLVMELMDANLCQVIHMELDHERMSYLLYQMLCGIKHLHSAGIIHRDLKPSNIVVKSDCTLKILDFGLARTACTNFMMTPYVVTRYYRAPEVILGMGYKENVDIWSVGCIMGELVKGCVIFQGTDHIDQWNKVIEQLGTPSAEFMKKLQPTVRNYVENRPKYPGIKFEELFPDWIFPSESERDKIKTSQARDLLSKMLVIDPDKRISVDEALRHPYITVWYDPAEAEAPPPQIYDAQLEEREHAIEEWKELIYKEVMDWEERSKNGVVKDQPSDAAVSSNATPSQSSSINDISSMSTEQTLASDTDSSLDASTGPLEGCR
Chain of JNK3α1 (P53779 1-422 isoform P53779-2): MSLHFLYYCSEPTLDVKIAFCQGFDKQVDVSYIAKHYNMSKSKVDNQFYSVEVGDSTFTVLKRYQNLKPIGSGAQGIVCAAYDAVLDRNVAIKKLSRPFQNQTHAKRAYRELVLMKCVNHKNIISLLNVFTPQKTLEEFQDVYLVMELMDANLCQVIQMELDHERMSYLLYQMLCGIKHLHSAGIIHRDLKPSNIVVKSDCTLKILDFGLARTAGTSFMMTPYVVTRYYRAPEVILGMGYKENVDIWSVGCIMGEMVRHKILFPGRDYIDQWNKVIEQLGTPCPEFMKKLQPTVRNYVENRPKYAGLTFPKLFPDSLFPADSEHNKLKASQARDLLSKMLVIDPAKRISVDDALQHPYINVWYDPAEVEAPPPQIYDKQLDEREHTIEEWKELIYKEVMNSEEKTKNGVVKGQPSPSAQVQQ
Chain of CYP3A4 (P08684 whole entry): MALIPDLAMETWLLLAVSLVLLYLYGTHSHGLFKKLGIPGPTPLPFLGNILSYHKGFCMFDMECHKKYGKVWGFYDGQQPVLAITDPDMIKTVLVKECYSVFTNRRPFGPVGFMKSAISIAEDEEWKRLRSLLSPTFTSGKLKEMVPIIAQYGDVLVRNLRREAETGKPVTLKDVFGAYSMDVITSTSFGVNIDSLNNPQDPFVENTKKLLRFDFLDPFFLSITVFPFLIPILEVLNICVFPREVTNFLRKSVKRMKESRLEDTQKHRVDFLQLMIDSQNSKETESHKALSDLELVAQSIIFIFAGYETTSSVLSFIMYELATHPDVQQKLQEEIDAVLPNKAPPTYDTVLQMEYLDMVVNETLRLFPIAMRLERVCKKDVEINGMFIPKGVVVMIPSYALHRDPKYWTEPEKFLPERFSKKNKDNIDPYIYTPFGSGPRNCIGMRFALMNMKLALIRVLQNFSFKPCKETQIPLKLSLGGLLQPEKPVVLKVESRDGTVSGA
Chain of CYP2C9 (P11712 whole entry): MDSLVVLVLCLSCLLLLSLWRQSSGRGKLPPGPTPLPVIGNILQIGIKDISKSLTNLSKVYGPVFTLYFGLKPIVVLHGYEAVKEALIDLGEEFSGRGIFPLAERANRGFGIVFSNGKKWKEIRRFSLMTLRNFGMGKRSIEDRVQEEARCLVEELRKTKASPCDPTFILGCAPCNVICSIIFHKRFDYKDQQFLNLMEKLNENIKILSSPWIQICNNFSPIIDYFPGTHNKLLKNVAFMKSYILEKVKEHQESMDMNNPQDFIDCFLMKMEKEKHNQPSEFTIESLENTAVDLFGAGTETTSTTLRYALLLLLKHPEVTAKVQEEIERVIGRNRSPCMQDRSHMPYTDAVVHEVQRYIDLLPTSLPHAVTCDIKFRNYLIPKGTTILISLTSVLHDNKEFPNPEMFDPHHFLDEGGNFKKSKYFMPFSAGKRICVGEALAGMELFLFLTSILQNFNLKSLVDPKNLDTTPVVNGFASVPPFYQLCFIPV
Chain of CYP2D6 (P10635 whole entry): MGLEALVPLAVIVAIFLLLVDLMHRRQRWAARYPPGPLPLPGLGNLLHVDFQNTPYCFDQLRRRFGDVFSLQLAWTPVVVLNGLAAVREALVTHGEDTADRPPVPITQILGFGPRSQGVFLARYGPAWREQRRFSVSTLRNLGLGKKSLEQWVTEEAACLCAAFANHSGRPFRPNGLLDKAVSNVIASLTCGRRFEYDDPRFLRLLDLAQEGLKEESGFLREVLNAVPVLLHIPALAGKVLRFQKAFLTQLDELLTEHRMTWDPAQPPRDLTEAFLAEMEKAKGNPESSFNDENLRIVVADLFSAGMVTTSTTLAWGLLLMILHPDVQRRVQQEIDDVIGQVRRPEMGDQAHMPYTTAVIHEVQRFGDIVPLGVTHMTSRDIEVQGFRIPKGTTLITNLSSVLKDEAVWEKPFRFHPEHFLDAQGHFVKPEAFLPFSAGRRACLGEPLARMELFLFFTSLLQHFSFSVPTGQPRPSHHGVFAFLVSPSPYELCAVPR
Chain of JNK1 (P45983 whole entry, canonical isoform): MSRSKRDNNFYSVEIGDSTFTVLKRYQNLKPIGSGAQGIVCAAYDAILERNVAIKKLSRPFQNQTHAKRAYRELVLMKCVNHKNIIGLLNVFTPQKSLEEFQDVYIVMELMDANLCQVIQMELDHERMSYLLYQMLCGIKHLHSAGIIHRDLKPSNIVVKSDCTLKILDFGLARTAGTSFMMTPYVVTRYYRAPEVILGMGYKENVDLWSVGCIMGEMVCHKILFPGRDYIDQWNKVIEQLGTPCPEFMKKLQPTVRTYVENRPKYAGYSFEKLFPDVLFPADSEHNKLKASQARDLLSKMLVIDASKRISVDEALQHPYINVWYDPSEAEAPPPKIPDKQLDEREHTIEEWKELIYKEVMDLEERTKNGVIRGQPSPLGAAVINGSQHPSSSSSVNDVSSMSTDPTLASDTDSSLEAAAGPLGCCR
Chain of p38α (Q16539 whole entry): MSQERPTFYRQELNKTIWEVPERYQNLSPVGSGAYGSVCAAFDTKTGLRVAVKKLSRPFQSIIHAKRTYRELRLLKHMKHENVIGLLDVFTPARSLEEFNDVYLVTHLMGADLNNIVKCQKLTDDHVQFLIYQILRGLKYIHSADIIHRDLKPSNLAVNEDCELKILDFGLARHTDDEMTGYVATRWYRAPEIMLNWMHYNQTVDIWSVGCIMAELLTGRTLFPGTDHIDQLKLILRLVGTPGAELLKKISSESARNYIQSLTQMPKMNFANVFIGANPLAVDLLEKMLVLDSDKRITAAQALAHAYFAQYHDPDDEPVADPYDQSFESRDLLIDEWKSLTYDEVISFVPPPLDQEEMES

Row | reduction in JNK3 inhibitions (JNK3α1; compared to 16) | SMILES | R: ratio of IC50 values of JNK2 over JNK3 (JNK2) | IC50 (JNK2) | R: ratio of IC50 values of JNK1 over JNK3 (JNK1) | IC50 (JNK1) | CYP-450 % inh. 1A2 (CYP1A2) | MTT cell viability (SHSY5Y cells) | Mic. stability t1/2 Mouse [1] | CYP-450 % inh. 3A4 (CYP3A4) | Mic. stability t1/2 Human [2] | IC50 (p38α) | CYP-450 % inh. 2C9 (CYP2C9) | CYP-450 % inh. 2D6 (CYP2D6) | IC50 (JNK3α1) | inhibition of phosphorylation of residue T668 of APP [3]
1 | – | O=C(Nc1cnn(-c2csc(C(=O)NC3CCOCC3)c2)c1)Nc1ccccc1Cl [Compound 15, 4-(4-(3-(2-chlorophenyl)ureido)-1H-pyrazol-1-yl)-N-(tetrahydro-2H-pyran-4-yl)thiophene-2-carboxamide] | 21 | 1.05 µM | 38 | 1.9 µM | 32% | 97% | 16 min | −35% | 32 min | > 20 µM | 7% | 0% | 0.05 µM | –
2 | – | CN1CCC(NC(=O)c2cc(-n3cc(NC(=O)Nc4ccccc4Cl)cn3)cs2)CC1 [Compound 14, 4-(4-(3-(2-chlorophenyl)ureido)-1H-pyrazol-1-yl)-N-(1-methylpiperidin-4-yl)thiophene-2-carboxamide] | 33 | 2.77 µM | – | 4.2 µM | −6% | 89% | 15 min | −34% | 92 min | > 20 µM | −19% | −5% | 0.084 µM | –
3 | 7 fold | Cc1sc(C(=O)N[C@@H]2CCOC2)cc1-n1cc(NC(=O)Nc2c(F)cccc2Cl)cn1 [Compound 28, (R)-4-(4-(3-(2-chloro-6-fluorophenyl)ureido)-1H-pyrazol-1-yl)-5-methyl-N-(tetrahydrofuran-3-yl)thiophene-2-carboxamide] | – | – | – | – | 34% | 114% | 38 min | 26% | 40 min | – | 35% | 17% | – | significantly inhibited
4 | – | O=C(Nc1cnn(-c2csc(C(=O)NC3COC3)c2)c1)Nc1ccc(F)cc1Cl [Compound 26, 4-(4-(3-(2-chloro-4-fluorophenyl)ureido)-1H-pyrazol-1-yl)-N-(oxetan-3-yl)thiophene-2-carboxamide] | – | – | – | – | 38% | 104% | 68 min | −5% | >120 min | – | 47% | 30% | – | significantly inhibited
5 | – | O=C(Nc1cnn(-c2csc(C(=O)NCC3CCOCC3)c2)c1)Nc1ccccc1Cl [Compound 24, 4-(4-(3-(2-chlorophenyl)ureido)-1H-pyrazol-1-yl)-N-((tetrahydro-2H-pyran-4-yl)methyl)thiophene-2-carboxamide] | 34 | 0.81 µM | 63 | 1.5 µM | 36% | 95% | 15 min | 21% | 8 min | > 20 µM | 64% | 32% | 0.024 µM | –
